{
  "source": "patent US7851190B2",
  "about": "“Biosynthetic gene cluster for leptomycins” (priority 2003, dated 2010)",
  "origin": "cited, not measured here",
  "key": {"[1]": {"system": "adriamycin, amsacrine and mitoxantrone resistant P388 leukemia, other leukemias, B16 melanoma, Ridgway osteogenic and M5076 sarcomas and mammary adenocarinoma"}, "[2]": {"system": "HIV-1 Rev", "conditions": "in vitro; FIG. 2"}},
  "data": [
    {"smiles": "CCC(=C/[C@H](C)C/C=C/C(C)=C/[C@@H](C)C(=O)[C@@H](C)[C@H](O)[C@@H](C)C/C(C)=C/C(=O)O)/C=C/[C@@H]1OC(=O)C=C[C@@H]1C", "note": "[LMB, Leptomycin B]", "values": [
      {"measurement": "acute toxicity", "setting": "[1]; exacerbated upon more frequent or oral administration", "result": "gastrointestinal"},
      {"measurement": "antitumor activity", "setting": "[1]; mouse murine and xenograph cancer models, low doses", "result": "Activity was observed at low doses"},
      {"measurement": "difference in activity between a Rev-dependent assay and cytotoxicity to the same cells", "setting": "[2]", "result": "approx. 250 fold"}
    ]},
    {"smiles": "CCOC(=O)/C=C\\n1ncnc1-c1cc(Cl)ccc1N", "note": "[PKF050-638]", "values": [
      {"measurement": "difference in activity between a Rev-dependent assay and cytotoxicity to the same cells", "setting": "[2]", "result": 75, "unit": "fold"}
    ]}
  ]
}
